Laboratory results published in ChEMBL document CHEMBL3991601, “The target landscape of clinical kinase drugs” (Science, 2017).
Calls of active or inactive are those of the source.

Key:
[1] = target: T1, Delta(24)-sterol reductase (Homo sapiens, UniProt Q15392)
T1 sequence (Q15392 whole entry): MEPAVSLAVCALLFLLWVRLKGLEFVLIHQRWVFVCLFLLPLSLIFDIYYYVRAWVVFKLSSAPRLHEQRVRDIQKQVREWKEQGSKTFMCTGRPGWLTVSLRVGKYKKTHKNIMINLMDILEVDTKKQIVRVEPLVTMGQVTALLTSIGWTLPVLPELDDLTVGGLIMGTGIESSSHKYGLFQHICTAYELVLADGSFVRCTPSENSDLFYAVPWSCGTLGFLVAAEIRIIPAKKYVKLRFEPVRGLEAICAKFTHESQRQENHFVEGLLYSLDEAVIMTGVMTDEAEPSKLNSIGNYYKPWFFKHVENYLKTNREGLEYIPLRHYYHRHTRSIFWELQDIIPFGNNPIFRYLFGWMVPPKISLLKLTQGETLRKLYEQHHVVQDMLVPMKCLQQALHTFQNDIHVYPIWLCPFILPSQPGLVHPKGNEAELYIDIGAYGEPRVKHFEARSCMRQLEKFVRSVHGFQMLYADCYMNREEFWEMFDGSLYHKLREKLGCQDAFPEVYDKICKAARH

[2] = target: T2, Mitogen-activated protein kinase kinase kinase kinase 2 (Homo sapiens, UniProt Q12851)
T2 sequence (Q12851 whole entry): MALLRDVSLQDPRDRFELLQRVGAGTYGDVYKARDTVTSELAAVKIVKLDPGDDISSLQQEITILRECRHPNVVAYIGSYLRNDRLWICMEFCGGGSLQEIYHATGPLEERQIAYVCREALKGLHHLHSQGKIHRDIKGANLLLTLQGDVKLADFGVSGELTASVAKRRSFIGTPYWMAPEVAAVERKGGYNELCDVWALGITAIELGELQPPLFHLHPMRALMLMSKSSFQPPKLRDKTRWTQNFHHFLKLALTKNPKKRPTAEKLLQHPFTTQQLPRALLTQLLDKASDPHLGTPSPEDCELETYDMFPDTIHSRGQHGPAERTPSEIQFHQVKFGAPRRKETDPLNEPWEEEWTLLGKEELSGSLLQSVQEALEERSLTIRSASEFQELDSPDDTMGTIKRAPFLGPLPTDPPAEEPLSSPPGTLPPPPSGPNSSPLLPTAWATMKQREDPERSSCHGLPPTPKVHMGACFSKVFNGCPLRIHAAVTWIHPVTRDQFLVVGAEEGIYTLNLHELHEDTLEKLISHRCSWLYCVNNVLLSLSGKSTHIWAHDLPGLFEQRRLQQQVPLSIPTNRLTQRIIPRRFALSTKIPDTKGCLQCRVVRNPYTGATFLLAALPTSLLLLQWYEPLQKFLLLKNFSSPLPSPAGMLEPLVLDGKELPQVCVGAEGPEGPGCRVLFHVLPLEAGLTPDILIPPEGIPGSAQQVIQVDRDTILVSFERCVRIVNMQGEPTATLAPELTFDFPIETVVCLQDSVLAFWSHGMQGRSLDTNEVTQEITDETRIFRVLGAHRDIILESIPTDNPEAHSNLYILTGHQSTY

[3] = target: T3, Dynamin-like GTPase OPA1, mitochondrial (Homo sapiens, UniProt O60313)
T3 sequence (O60313 whole entry): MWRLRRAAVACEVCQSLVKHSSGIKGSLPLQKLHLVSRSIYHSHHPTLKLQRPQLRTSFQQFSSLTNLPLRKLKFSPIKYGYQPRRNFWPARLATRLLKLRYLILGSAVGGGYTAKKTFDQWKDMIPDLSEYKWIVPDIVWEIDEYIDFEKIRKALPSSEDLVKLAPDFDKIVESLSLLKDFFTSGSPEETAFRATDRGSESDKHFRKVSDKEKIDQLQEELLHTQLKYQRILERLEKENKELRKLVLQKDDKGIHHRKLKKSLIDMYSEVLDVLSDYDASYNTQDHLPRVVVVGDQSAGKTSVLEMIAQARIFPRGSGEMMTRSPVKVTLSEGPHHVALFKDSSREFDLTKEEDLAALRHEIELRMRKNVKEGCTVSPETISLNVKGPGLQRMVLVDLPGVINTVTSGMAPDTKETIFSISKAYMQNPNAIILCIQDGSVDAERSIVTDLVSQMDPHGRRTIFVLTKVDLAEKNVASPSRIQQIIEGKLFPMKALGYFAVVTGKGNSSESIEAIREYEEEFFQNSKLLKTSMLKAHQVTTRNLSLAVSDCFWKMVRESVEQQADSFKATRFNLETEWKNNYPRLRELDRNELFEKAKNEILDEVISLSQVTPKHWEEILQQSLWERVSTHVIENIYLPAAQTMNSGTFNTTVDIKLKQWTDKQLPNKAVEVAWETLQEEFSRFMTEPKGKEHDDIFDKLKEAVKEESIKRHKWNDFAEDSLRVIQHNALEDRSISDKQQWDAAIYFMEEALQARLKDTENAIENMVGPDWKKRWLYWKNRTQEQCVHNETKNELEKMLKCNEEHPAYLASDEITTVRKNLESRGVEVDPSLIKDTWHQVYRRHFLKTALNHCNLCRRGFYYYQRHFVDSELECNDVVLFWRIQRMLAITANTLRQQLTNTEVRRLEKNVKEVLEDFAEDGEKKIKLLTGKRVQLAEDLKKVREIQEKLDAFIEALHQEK

[4] = target: T4, Ras-related protein Rab-10 (Homo sapiens, UniProt P61026)
T4 sequence (P61026 whole entry): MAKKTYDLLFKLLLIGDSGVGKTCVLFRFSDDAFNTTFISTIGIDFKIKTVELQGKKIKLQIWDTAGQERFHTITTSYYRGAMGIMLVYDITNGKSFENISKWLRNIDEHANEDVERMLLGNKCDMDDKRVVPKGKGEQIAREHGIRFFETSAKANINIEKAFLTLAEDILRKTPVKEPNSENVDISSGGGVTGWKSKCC

[5] = target: T5, Uncharacterized protein FLJ45252 (Homo sapiens, UniProt Q6ZSR9); settings: read-out: Kd apparent; k-562, colo 205, sk-n-be(2) and mv-4-11
T5 sequence (Q6ZSR9 whole entry): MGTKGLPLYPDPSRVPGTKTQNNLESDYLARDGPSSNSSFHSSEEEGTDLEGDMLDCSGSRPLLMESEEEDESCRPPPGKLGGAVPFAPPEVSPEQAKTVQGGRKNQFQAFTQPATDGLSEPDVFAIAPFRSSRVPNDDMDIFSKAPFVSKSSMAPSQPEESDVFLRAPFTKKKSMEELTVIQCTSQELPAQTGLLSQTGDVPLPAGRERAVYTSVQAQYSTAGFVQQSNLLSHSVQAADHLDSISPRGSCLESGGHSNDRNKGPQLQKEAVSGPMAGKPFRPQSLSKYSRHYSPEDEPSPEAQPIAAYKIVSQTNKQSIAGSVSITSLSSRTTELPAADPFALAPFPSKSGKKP

[6] = target: Myosin-14 (Homo sapiens, UniProt Q7Z406)
Further: in the data inactive means no Kd found up to 30 µM.

Chain of Myosin-14 (Q7Z406 whole entry): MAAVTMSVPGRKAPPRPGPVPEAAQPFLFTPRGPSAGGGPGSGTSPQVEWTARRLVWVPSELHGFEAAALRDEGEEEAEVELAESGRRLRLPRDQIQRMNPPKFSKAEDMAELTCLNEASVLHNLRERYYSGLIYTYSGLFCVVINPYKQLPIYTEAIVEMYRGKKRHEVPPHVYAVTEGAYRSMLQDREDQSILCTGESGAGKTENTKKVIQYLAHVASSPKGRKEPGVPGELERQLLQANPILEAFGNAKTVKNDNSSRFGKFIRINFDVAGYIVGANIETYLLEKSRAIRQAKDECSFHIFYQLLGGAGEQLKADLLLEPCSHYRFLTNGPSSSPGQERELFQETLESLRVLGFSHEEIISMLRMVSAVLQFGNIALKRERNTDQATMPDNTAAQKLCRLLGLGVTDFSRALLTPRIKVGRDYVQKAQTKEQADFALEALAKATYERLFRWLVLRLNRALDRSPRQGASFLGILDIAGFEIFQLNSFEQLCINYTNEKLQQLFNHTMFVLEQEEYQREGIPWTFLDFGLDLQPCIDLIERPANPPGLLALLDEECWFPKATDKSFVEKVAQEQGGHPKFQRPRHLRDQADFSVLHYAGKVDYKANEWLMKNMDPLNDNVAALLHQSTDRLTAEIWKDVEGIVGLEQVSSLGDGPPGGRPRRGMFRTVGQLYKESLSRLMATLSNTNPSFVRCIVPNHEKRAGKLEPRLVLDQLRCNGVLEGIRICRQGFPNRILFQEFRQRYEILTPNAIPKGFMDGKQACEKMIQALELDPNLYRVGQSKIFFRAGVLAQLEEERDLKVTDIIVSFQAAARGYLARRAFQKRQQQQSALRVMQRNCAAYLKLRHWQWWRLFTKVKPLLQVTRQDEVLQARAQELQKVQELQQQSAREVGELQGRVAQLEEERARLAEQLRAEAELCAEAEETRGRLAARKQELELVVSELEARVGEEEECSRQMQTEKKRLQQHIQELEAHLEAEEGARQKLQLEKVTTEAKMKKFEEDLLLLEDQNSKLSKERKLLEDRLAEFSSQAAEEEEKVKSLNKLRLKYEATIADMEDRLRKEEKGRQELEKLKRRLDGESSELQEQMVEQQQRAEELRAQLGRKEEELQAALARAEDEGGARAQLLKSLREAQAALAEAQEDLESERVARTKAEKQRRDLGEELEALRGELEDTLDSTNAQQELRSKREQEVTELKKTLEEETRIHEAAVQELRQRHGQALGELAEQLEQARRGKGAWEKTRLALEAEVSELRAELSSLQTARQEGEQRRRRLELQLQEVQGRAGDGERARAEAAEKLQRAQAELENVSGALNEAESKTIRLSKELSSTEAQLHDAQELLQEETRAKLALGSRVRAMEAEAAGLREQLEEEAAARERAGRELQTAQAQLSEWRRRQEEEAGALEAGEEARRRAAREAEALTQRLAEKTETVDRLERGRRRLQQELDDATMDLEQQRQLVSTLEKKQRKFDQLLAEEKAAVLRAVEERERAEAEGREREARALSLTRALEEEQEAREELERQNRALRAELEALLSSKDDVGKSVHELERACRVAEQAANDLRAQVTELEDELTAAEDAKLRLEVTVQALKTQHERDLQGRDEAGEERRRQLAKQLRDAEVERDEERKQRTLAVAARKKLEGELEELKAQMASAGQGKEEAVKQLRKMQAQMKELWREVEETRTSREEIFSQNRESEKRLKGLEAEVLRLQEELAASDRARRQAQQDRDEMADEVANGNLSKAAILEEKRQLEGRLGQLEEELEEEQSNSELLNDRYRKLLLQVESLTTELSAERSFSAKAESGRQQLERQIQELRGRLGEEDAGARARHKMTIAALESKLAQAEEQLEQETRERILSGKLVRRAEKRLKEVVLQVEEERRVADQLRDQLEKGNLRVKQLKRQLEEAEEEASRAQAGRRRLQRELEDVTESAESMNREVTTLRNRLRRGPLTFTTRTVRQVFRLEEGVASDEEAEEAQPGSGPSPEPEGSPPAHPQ

Row | Compound | Kd [1] | Kd [2] | Kd [3] | Kd [4] | Kd [5] | Kd [6]
1 | Cc1cc(-c2cc(O)ccc2Cl)cc2nnc(Nc3ccc(OCCN4CCCC4)cc3)nc12 | > 30 µM (inactive) | > 30 µM (inactive) | > 30 µM (inactive) | > 30 µM (inactive) | > 30 µM (inactive) | –
2 | CCCS(=O)(=O)Nc1ccc(F)c(C(=O)c2c[nH]c3ncc(-c4ccc(Cl)cc4)cc23)c1F [VEMURAFENIB] | > 30 µM (inactive) | – | > 30 µM (inactive) | > 30 µM (inactive) | > 30 µM (inactive) | > 30 µM (inactive)
3 | CC[C@H](Nc1ncnc2[nH]cnc12)c1nc2cccc(F)c2c(=O)n1-c1ccccc1 [IDELALISIB] | > 30 µM (inactive) | > 30 µM (inactive) | > 30 µM (inactive) | > 30 µM (inactive) | – | –
4 | Cc1cn(-c2cc(NC(=O)c3ccc(C)c(Nc4nccc(-c5cccnc5)n4)c3)cc(C(F)(F)F)c2)cn1 [NILOTINIB] | > 30 µM (inactive) | – | > 30 µM (inactive) | > 30 µM (inactive) | > 30 µM (inactive) | > 30 µM (inactive)
5 | CCc1cnn2c(NCc3ccc[n+]([O-])c3)cc(N3CCCC[C@H]3CCO)nc12 [DINACICLIB] | > 30 µM (inactive) | – | > 30 µM (inactive) | > 30 µM (inactive) | – | > 30 µM (inactive)
6 | C=CC(=O)N1CCC(Oc2cc3c(Nc4ccc(Cl)c(Cl)c4F)ncnc3cc2OC)CC1 [POZIOTINIB] | > 30 µM (inactive) | > 30 µM (inactive) | > 30 µM (inactive) | > 30 µM (inactive) | > 30 µM (inactive) | –
7 | O=C(Nc1cccc(Cl)c1)Nc1ncc(CCNc2ncnc3ccsc23)s1 [SNS-314] | > 30 µM (inactive) | – | > 30 µM (inactive) | > 30 µM (inactive) | > 30 µM (inactive) | > 30 µM (inactive)
8 | CNC(=O)c1ccc(-c2cnc3ncc(Cc4ccc5ncccc5c4)n3n2)cc1F [CAPMATINIB] | > 30 µM (inactive) | > 30 µM (inactive) | > 30 µM (inactive) | – | > 30 µM (inactive) | > 30 µM (inactive)
9 | Cc1ccc(S(=O)(=O)Nc2nc3ccccc3nc2Nc2ccc3nsnc3c2)cc1 | > 30 µM (inactive) | > 30 µM (inactive) | > 30 µM (inactive) | > 30 µM (inactive) | > 30 µM (inactive) | –
10 | CN1CCN(c2ccc3nc(-c4c(N)c5c(F)cccc5[nH]c4=O)[nH]c3c2)CC1 [DOVITINIB] | > 30 µM (inactive) | – | > 30 µM (inactive) | > 30 µM (inactive) | 0.104 µM (active) | > 30 µM (inactive)
11 | CN1CCC(COc2cnc(-c3cccc(Cn4nc(-c5cccc(C#N)c5)ccc4=O)c3)nc2)CC1 [TEPOTINIB] | > 30 µM (inactive) | > 30 µM (inactive) | > 30 µM (inactive) | > 30 µM (inactive) | > 30 µM (inactive) | –
12 | CNC(=O)c1cc(Oc2ccc(NC(=O)Nc3ccc(Cl)c(C(F)(F)F)c3)c(F)c2)ccn1 [REGORAFENIB] | > 30 µM (inactive) | > 30 µM (inactive) | > 30 µM (inactive) | > 30 µM (inactive) | – | > 30 µM (inactive)
13 | Nc1nc(N)c2nc(-c3cccc(O)c3)c(-c3cccc(O)c3)nc2n1 [TG100-115] | > 30 µM (inactive) | – | > 30 µM (inactive) | > 30 µM (inactive) | 3.01 µM (active) | –
14 | COc1cc(OC)c(/C=C/S(=O)(=O)Cc2ccc(OC)c(NCC(=O)O)c2)c(OC)c1 [RIGOSERTIB] | > 30 µM (inactive) | > 30 µM (inactive) | > 30 µM (inactive) | > 30 µM (inactive) | > 30 µM (inactive) | –
15 | Cc1c(F)cc(C(=O)NC2CC2)cc1-c1ccc(C(=O)NCC(C)(C)C)cn1 [LOSMAPIMOD] | > 30 µM (inactive) | > 30 µM (inactive) | > 30 µM (inactive) | > 30 µM (inactive) | > 30 µM (inactive) | –
16 | CC[C@@H]1C(=O)N(C)c2cnc(Nc3ccc(C(=O)N[C@H]4CC[C@H](N5CCN(CC6CC6)CC5)CC4)cc3OC)nc2N1C(C)C [VOLASERTIB] | > 30 µM (inactive) | > 30 µM (inactive) | > 30 µM (inactive) | > 30 µM (inactive) | – | > 30 µM (inactive)
17 | CN(C)C(=O)c1cc2cnc(Nc3ccc(N4CCNCC4)cn3)nc2n1C1CCCC1 [RIBOCICLIB] | > 30 µM (inactive) | > 30 µM (inactive) | > 30 µM (inactive) | > 30 µM (inactive) | 9.31 µM (active) | –

Results, then the molecule that gave them:

Row | Kd [1] | Kd [2] | Kd [3] | Kd [4] | Kd [5] | Kd [6] | Compound
18 | > 30 µM (inactive) | – | > 30 µM (inactive) | > 30 µM (inactive) | > 30 µM (inactive) | > 30 µM (inactive) | OCCn1cc(-c2cnc3nnn(Cc4ccc5ncccc5c4)c3n2)cn1 [PF-04217903]
19 | > 30 µM (inactive) | > 30 µM (inactive) | > 30 µM (inactive) | > 30 µM (inactive) | 0.822 µM (active) | – | COc1cc(N2CCC(N3CCN(C)CC3)CC2)ccc1Nc1ncnc(Nc2ccccc2S(=O)(=O)C(C)C)n1 [ASP-3026]
20 | > 30 µM (inactive) | – | > 30 µM (inactive) | > 30 µM (inactive) | 0.007 µM (active) | > 30 µM (inactive) | Cc1nc(N)sc1-c1ccnc(Nc2ccc(N3CCOCC3)cc2)n1 [CYC-116]
21 | > 30 µM (inactive) | – | > 30 µM (inactive) | > 30 µM (inactive) | > 30 µM (inactive) | > 30 µM (inactive) | Cc1cc(Nc2cc(N3CCN(C)CC3)nc(/C=C/c3ccccc3)n2)n[nH]1 [ENMD-2076]
22 | > 30 µM (inactive) | – | > 30 µM (inactive) | > 30 µM (inactive) | > 30 µM (inactive) | > 30 µM (inactive) | CCn1c(-c2nonc2N)nc2c(C#CC(C)(C)O)ncc(OC[C@H]3CCCNC3)c21 [GSK-690693]
